Laboratory results reported in patent US7854922B2, “Skin preparation for external use characterized by containing sugar derivative of α, α-trehalose” (Kabushiki Kaisha Hayashibara Seibutsu Kagaku Kenkyujo, priority 2003, dated 2010).

Key:
[1] = tested on: Streptococcus mutans OMZ-176; test: Test for acidic fermentation; assay type: cell-based
Method: (§1) The resulting precipitate was washed with Stephan buffer (pH7.0), and centrifuged to collect a bacteria precipitate. Equal volume of Stephan buffer was added to the bacteria precipitate, followed by suspending the precipitate in the buffer to give a final concentration of 50% (v/v) in order to prepare two bacteria suspensions for testing. A half milliliter of the bacteria suspension was admixed with 0.5 ml of the above test saccharide solution and incubated at 37° C. for 90 minutes, while measuring the pH at 5, 15, 30, 60, and 90 minutes after the initiation of the culture. The Stephan's buffer was prepared by admixing 1 ml of “solution A” and “solution B” with distilled water to give a final volume 100 ml, and adjusting to pH7.0 (“solution A”: dissolving 71 g of Na2HPO4, 7.92 g of KOH and 68.1 g of KH2PO4 in distilled water to give a final volume 1,000 ml; and “solution B”: dissolving 45.4 g of KH2PO4, 3.2 g of MgSO4 2H2O and 100 ml of 1.2N HCl in distilled water to give a final volume 1,000 ml).

[2] = tested on: Streptococcus sobrinus 6715; test: Test for acidic fermentation; assay type: cell-based
Method: as §1

[3] = Test for absorbing or releasing moisture (comparison with usual moisturizing agents); assay type: physicochemical; conditions: 75% sample, after RH 60% for 216 hours
Method: The syrup containing saccharide derivatives of α,α-trehalose was confirmed to have a satisfactory property of absorbing and releasing moisture. To compare other saccharide used as a usual moisturizing agent for cosmetics, the following experiment was carried out. Test samples, containing 75%, on a dry solid basis, of either of the syrup prepared in Example 6, concentrated glycerin, sorbitol or maltitol, were prepared. About 1 g of each solution was placed in two containers. The containers were preciously weighed and kept at RH 60% for 216 hours. One of containers was kept at RH 80% and the other container was kept at PH 33%. After 24 hours or 168 hours, they were weighed.

[4] = tested on: Mouse fibroblast cells (L-929); test: Test for cell protection (Alamar Blue); assay type: cell-based; conditions: 1% in D-MEM before one-hour drying
Method: To examine the influence of the syrup containing saccharide derivatives of α,α-trehalose, prepared in Example 6, on cell protection, the following experiment was carried out. […] As controls, control media containing D-MEM supplemented with 10% fetal calf serum and optionally containing 1% glycerin were prepared. The control mediums were added in the medium-removed wells of the remaining four plates, respectively. The cells were cultured for one day, dried for one hour in such a manner of keeping in opened plate under the sterile condition after the medium was removed from the wells by aspiration. Then, the cells were cultured in D-MEM supplemented with 10% fetal calf serum for three days while changing the medium once a day. The resulting plates were subjected to the measurement of cell amount of each well using “Alamar Blue” commercialized by Wako Pure Chemical Industries, Ltd., Osaka, Japan, just after the drying, and four hours, one day, two days or three days after the drying. […] In detail, the medium was added to each well in an amount of 4 ml. One plate was used for each measurement for the amount of cells treated with the test medium or the two control mediums. […] As evidence from the result in Table 10, the test medium or the control media increased the rate of cell proliferation of fibroblast cells. The control medium containing 1% of glycerin increased cell amount almost equal to the control medium containing only D-MEM. […] Influence caused by UV-irradiation was examined in the same manner as above instead of exposure to a drying condition (data not shown).

TNF-α = test: Production of TNF-α by macrophage cell line RAW264.7 stimulated with IFN-γ and LPS; assay type: cell-based; conditions: data not shown
Text: Glycerin enhanced the production of TNF-α in a concentration-dependent manner and inhibited the production of ICAM-1 molecule.

[5] = Browning of L-ascorbic acid kept at 50° C. for 14 days (Experiment 3); assay type: physicochemical
Method: An aqueous solution further containing 10 parts by weight of glycerin (concentrated glycerin in cosmetic grade, commercialized by Kao Co., Ltd., Tokyo, Japan) instead of saccharide derivatives of α,α-trehalose was prepared. Three resulting solutions were kept at 50° C. under the shaded condition for 14 days. To examine browning, values of absorbance 420 nm of the test samples were measured by usual method and compared with that of the starting test samples. To examine the degree of coloring, relative values of test samples were calculated by comparing the value of differential absorbance of the solution containing only L-ascorbic acid, defined as 100%. Degree of coloring=(Difference of absorbance of test sample containing saccharide derivatives of α,α-trehalose or glycerin)/(Difference of absorbance of control sample containing only L-ascorbic acid)×100

[6] = tested on: crude water-insoluble glucan producing enzyme; test: Test for the production of water-insoluble glucan; assay type: biochemical, Streptococcus mutans OMZ-176
Method: To examine the effect of the syrup containing saccharide derivatives of α,α-trehalose, prepared in Example 6, on the production of water-insoluble glucan, the following experiment was carried out. According to usual method, Streptococcus mutans OMZ-176 was cultured to prepare a crude water-insoluble glucan producing enzyme solution (25 mg protein/ml). Test saccharide solutions were prepared by dissolving the syrup prepared in Example 1, the syrup prepared in Example 6, or α-maltosyl α,α-trehalose used in Experiment 1 in purified water to give a final concentration 2% on a dry solid basis. A half milliliter of one of the test saccharide solution was admixed with 0.25 ml of the crude water-insoluble glucan producing enzyme solution, 0.75 ml of 0.1 M phosphate buffer, and 0.5 ml of 2% sucrose. The resulting reaction mixture was placed in a new test tube (sized with 10 mm in diameter and 130 mm in height) slanted at an elevation angle of 30 degrees, and kept at 37° C. for 16 hours. The supernatant was gently collected. The remaining precipitate was washed with deionized water by centrifuging twice to collect a precipitate as adherent glucan. The washing solution and the above supernatant was mixed together and centrifuged at 5,000 rpm for 10 minutes to collect precipitate. The resulting precipitate was washed with deionized water and centrifuged to collect a non-adherent glucan. The adherent and non-adherent glucan were weighed. The total weight thereof was calculated as water-insoluble glucan. As a control, distilled water was used instead of the test saccharide solution. The water-insoluble glucan as control were weighed in the same manner. Inhibitory rate (%) of the production of water-insoluble glucan was calculated in such a manner of dividing the value of each test saccharide solution by that of the control, multiplying the resulting value by 100, and subtracting the resulting value from 100.

[7] = Hygroscopicity and solubility in water of the products; assay type: physicochemical
[8] = 0.7% test saccharide solution, 37° C., reaction time 0 minute
[9] = reaction time 5 minutes, listed as sucrose
[10] = 2% test saccharide solution with sucrose, 37° C., 16 hours

| Relative weight change rate (%) ([3]; RH 33%, 0 hour) | Relative weight change rate (%) ([3]; RH 33%, 24 hours) | Relative weight change rate (%) ([3]; RH 33%, 168 hours) | Relative weight change rate (%) ([3]; RH 80%, 0 hour) | Relative weight change rate (%) ([3]; RH 80%, 24 hours) | Relative weight change rate (%) ([3]; RH 80%, 168 hours) | Structure (SMILES) | pH [1, 8] | pH ([1]; reaction time 5 minutes) | pH ([1]; reaction time 15 minutes) | pH ([1]; reaction time 30 minutes) | pH ([1]; reaction time 60 minutes) | pH ([1]; reaction time 90 minutes) | pH [2, 8] | pH ([2]; reaction time 5 minutes) | pH ([2]; reaction time 15 minutes) | pH ([2]; reaction time 30 minutes) | pH ([2]; reaction time 60 minutes) | pH ([2]; reaction time 90 minutes) | other results |
| --- | --- | --- | --- | --- | --- | --- | --- | --- | --- | --- | --- | --- | --- | --- | --- | --- | --- | --- | --- |
| 0.0 | −13.8 | −18.8 | 0.0 | 8.2 | – | OCC(O)CO [Glycerin, glycerin] | – | – | – | – | – | – | – | – | – | – | – | – | Rate of cell proliferation (%) ([4]; One day after dried): 165%; Rate of cell proliferation (%) ([4]; One hour (defined as 100%)): 100%; Rate of cell proliferation (%) ([4]; Three days after dried): 243%; Rate of cell proliferation (%) ([4]; Two days after dried): 235%; production of TNF-α (TNF-α): inhibited the production of TNF-α in a concentration-dependent manner |
| 0.0 | −1.4 | −4.2 | 0.0 | 3.5 | 5.3 | OC[C@@H](O)[C@@H](O[C@H]1O[C@H](CO)[C@@H](O)[C@H](O)[C@H]1O)[C@H](O)[C@@H](O)CO [Maltitol, maltitol] | – | – | – | – | – | – | – | – | – | – | – | – | – |
| 0.0 | −2.4 | −5.0 | 0.0 | 5.4 | 10.7 | OC[C@@H](O)[C@@H](O)[C@H](O)[C@@H](O)CO [Sorbitol, sorbitol] | – | – | – | – | – | – | – | – | – | – | – | – | – |

Further lines, the molecule ahead of its results:

| Structure (SMILES) | Relative weight change rate (%) ([3]; RH 33%, 0 hour) | Relative weight change rate (%) ([3]; RH 33%, 24 hours) | Relative weight change rate (%) ([3]; RH 33%, 168 hours) | Relative weight change rate (%) ([3]; RH 80%, 0 hour) | Relative weight change rate (%) ([3]; RH 80%, 24 hours) | Relative weight change rate (%) ([3]; RH 80%, 168 hours) | pH [1, 8] | pH ([1]; reaction time 5 minutes) | pH ([1]; reaction time 15 minutes) | pH ([1]; reaction time 30 minutes) | pH ([1]; reaction time 60 minutes) | pH ([1]; reaction time 90 minutes) | pH [2, 8] | pH ([2]; reaction time 5 minutes) | pH ([2]; reaction time 15 minutes) | pH ([2]; reaction time 30 minutes) | pH ([2]; reaction time 60 minutes) | pH ([2]; reaction time 90 minutes) | other results |
| --- | --- | --- | --- | --- | --- | --- | --- | --- | --- | --- | --- | --- | --- | --- | --- | --- | --- | --- | --- |
| OC[C@H]1O[C@@](CO)(O[C@H]2O[C@H](CO)[C@@H](O)[C@H](O)[C@H]2O)[C@@H](O)[C@@H]1O [Sucrose, sucrose] | – | – | – | – | – | – | 6.60 | 4.05 | 3.97 | 3.99 | 3.99 | 4.01 | 6.74 | 4.18 | 3.87 | 3.81 | 3.82 | 3.91 | pH [1, 9]: about 4.0; pH [2, 9]: about 4.0 |
| O=C1O[C@H]([C@@H](O)CO)C(O)=C1O [L-Ascorbic acid, L-ascorbic acid] | – | – | – | – | – | – | – | – | – | – | – | – | – | – | – | – | – | – | Absorbance of test sample kept after 14 days (420 nm) ([5]; 50° C., shaded, 14 days): 5.000; Difference of absorbance (420 nm) ([5]; 14 days minus starting): 4.999; Absorbance of starting test sample (420 nm) ([5]; pH 6.5 aqueous solution): 0.001; Degree of coloring (%) ([5]; relative to solution containing only L-ascorbic acid as 100%): 100% |
| OC[C@H]1O[C@H](O[C@H]2O[C@H](CO)[C@@H](O[C@H]3O[C@H](CO)[C@@H](O[C@H]4O[C@H](CO)[C@@H](O)[C@H](O)[C@H]4O)[C@H](O)[C@H]3O)[C@H](O)[C@H]2O)[C@H](O)[C@@H](O)[C@@H]1O [Example 5, α-maltosyl α,α-trehalose] | – | – | – | – | – | – | 6.72 | 6.70 | 6.64 | 6.58 | 6.51 | 6.43 | 6.72 | 6.70 | 6.64 | 6.58 | 6.51 | 6.43 | Production of water-insoluble glucan, Adhesive glucan [6, 10]: 1120 μg/10 mg sucrose; Production of water-insoluble glucan, Non-adhesive glucan [6, 10]: 1009 μg/10 mg sucrose; Production of water-insoluble glucan, Total glucan [6, 10]: 2129 μg/10 mg sucrose; Inhibition rate of production, Adhesive glucan ([6]; versus distilled water): (50) %; Inhibition rate of production, Non-adhesive glucan ([6]; versus distilled water): (13) %; Inhibition rate of production, Total glucan ([6]; versus distilled water): (37) %; hygroscopicity [7]: low; solubility in water [7]: satisfactory |
